Consider 14 compounds from patent US20240376048A1 (Celgene Corporation, priority 2021, published 2024).

Where only a bound is given, the exact number is not on record here.

S1P5, sequence (Q9H228 whole entry, species assumed): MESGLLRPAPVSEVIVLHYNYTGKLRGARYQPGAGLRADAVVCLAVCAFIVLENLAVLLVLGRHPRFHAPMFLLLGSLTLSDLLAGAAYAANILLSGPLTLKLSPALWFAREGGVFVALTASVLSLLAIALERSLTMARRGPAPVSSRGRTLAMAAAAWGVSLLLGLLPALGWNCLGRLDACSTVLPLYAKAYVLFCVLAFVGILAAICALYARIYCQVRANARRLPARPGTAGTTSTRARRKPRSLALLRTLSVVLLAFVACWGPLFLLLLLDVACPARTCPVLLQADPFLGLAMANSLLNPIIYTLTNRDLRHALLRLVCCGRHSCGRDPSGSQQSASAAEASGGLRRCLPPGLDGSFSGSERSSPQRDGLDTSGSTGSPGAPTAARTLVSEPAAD

The assay has as its target S1P5 (Homo sapiens, UniProt Q9H228). Kind of assay: [35S]-GTPγS binding assay (S1P5 agonism), CHO cell membranes. The assay is classed as biochemical. Particulars: membranes of CHO cells expressing recombinant S1P5 receptors, measure of S1P5 agonism. The method, then:
CHO cells expressing recombinant S1P5 receptors were cultured in 500 cm^2 culture trays and, once confluent, rinsed and detached with cell-lifting buffer (10 mM HEPES, 154 mM NaCl, 6.85 mM EDTA, pH 7.4). Cells were then pelleted by centrifugation, resuspended, and homogenized in membrane preparation buffer (10 mM HEPES and 10 mM EDTA, pH 7.4) using a Polytron PT 1200E homogenizer (Kinematica, Luzern, Switzerland). Cellular proteins were pelleted by centrifugation at 48,000×g at 4° C. for 30 minutes. The resulting supernatant was discarded, and the pellet was re-suspended again in membrane preparation buffer, homogenized for a second time, and then centrifuged again as described above. The final cellular protein pellet was suspended in ice cold resuspension buffer (10 mM HEPES and 0.1 mM EDTA, pH 7.4), divided into aliquots, and stored at −80° C. until use.
Functional binding assays for [^35S]-GTPγS were performed in 96-well non-binding surface plates with a final volume of 200 μL. The test compounds were serially diluted in DMSO and added to assay plates using a Tecan D300E digital printer with a total volume of […]. The control sphingosine-1-phosphate (S1P) was prepared separately by preparing a 400 μM stock solution from a 100 nmol pellet of S1P in 10 mM Na2CO3 with 2% […]. The serial dilution of S1P was done using complete assay buffer (20 mM HEPES, 10 mM MgCl2, 100 mM NaCl, 1 mM EDTA, 0.1% fatty acid free bovine serum albumin (BSA), and 30 μg/mL saponin, pH 7.4) and transferred to wells already containing 0.4 μL DMSO. All the wells were then loaded to a total volume of 40 μL of complete assay buffer, except the non-specific binding (NSB) wells. For NSB wells, 40 μL/well of 50 μM GTPγS (Sigma Aldrich, cat #G8634, St. Louis, MO) was added to wells containing 0.4 μL of DMSO. The assay was started by the addition of 120 μL/well of CHO-SlP receptor membrane solution containing 40 μg/mL of membrane protein, 16.67 μM guanosine diphosphate (GDP; Sigma Aldrich, cat #G7127, St. Louis, MO), and 2.5 mg/mL of WGA PVT SPA beads in complete buffer. Assay plates were then sealed and incubated at room temperature with gentle agitation for 30 minutes. Next, 40 µL/well of 1 nM of [^35S]-GTPγS (PerkinElmer, cat #NEG030X25OUC, Waltham, MA) in basic assay buffer (20 mM HEPES, 10 mM MgCl2, 100 mM NaCl, and 1 mM EDTA, pH7.4) was added to the assay plates to yield a final concentration of 200 pM and the plates were further incubated for 40 minutes at room temperature with gentle agitation. The assay was terminated by centrifugation of the plates at 1000 rpm for 3 minutes using an Eppendorf 5810R centrifuge (Eppendorf, Hamburg, Germany) and G protein bound radioactivity was quantitated using a MicroBeta2 microplate scintillation counter (PerkinElmer, Waltham, MA). As G protein bound radioactivity directly correlates to receptor activation and coupling to the G protein, this assay is a measure of S1P5 agonism.
A general note: GTPγS is a poorly hydrolysed GTP analogue; its binding reports G protein activation.
As usually defined, the EC50 is the concentration giving half of the maximal effect. As to `O=C(O)[C@@H]1[C@@H]2CN(C3CCc4cc(OCc5c(Cl)cccc5Cl)ccc43)C[C@@H]21` (stereo partly drawn) [Compound 23, (1R,5S,6s)-3-(5-((2,6-dichlorobenzyl)oxy)-2,3-dihydro-1H-inden-1-yl)-3-azabicyclo[3.1.0]hexane-6-carboxylic acid], the concentration giving a half-maximal response (EC50) is 1 to 10 nM.
With `O=C(O)C1CC2(C1)CN(C1CCc3cc(OCc4c(Cl)cccc4Cl)ccc31)C2` (centres unmarked) [Compound 27, 2-(5-((2,6-dichlorobenzyl)oxy)-2,3-dihydro-1H-inden-1-yl)-2-azaspiro[3.3]heptane-6-carboxylic acid], the concentration for a half-maximal effect (EC50) was in the range of 1 to 10 nM.
As for `CC1(C)CC(C(=O)O)CCN1C1CCc2cc(OCc3c(Cl)cccc3Cl)ccc21` (centres unmarked) [Compound 28, 1-(5-((2,6-dichlorobenzyl)oxy)-2,3-dihydro-1H-inden-1-yl)-2,2-dimethylpiperidine-4-carboxylic acid], the figure is 10 to 100 nM.
Take `CC1(C(=O)O)CCN(C2CCc3cc(OCc4c(Cl)cccc4Cl)ccc32)CC1` (centres unmarked) [Compound 29, 1-(5-((2,6-dichlorobenzyl)oxy)-2,3-dihydro-1H-inden-1-yl)-4-methylpiperidine-4-carboxylic acid]: the EC50 lay in the range of 10 to 100 nM.
Regarding `CC1CC(C(=O)O)CCN1C1CCc2cc(OCc3c(Cl)cccc3Cl)ccc21` (centres unmarked) [Compound 30, 1-(5-((2,6-dichlorobenzyl)oxy)-2,3-dihydro-1H-inden-1-yl)-2-methylpiperidine-4-carboxylic acid], the EC50 fell in the range of 10 to 100 nM.
As for `CC1CC(C(=O)O)CC(C)N1C1CCc2cc(OCc3c(Cl)cccc3Cl)ccc21` (centres unmarked) [Compound 31, 1-(5-((2,6-dichlorobenzyl)oxy)-2,3-dihydro-1H-inden-1-yl)-2,6-dimethylpiperidine-4-carboxylic acid], the figure is 10 to 100 nM; as for `O=C(O)C1CCN(C2CCc3cc(OCc4c(Cl)cccc4Cl)cc(F)c32)CC1` (centres unmarked) [Compound 32, 1-(5-((2,6-dichlorobenzyl)oxy)-7-fluoro-2,3-dihydro-1H-inden-1-yl)piperidine-4-carboxylic acid], 1 to 10 nM; as for `O=C(O)C1CCN(C2CCc3cc(OCc4c(Cl)cccc4Cl)c(F)cc32)CC1` (centres unmarked) [Compound 33, 1-(5-((2,6-dichlorobenzyl)oxy)-6-fluoro-2,3-dihydro-1H-inden-1-yl)piperidine-4-carboxylic acid], 1 to 10 nM.
For the compound `O=C(O)C1CCN(C2CCc3c2ccc(OCc2c(Cl)cccc2Cl)c3F)CC1` (centres unmarked) [Compound 34, 1-(5-((2,6-dichlorobenzyl)oxy)-4-fluoro-2,3-dihydro-1H-inden-1-yl)piperidine-4-carboxylic acid], the 50% effective concentration (EC50) is at most 1 nM.
As for `Cc1cc(OCc2c(Cl)cccc2Cl)cc2c1C(N1CCC(C(=O)O)CC1)CC2` (centres unmarked) [Compound 35, 1-(5-((2,6-dichlorobenzyl)oxy)-7-methyl-2,3-dihydro-1H-inden-1-yl)piperidine-4-carboxylic acid], the EC50 is at most 1 nM.
The figure for `Cc1c(OCc2c(Cl)cccc2Cl)ccc2c1CCC2N1CCC(C(=O)O)CC1` (centres unmarked) [Compound 36, 1-(5-((2,6-dichlorobenzyl)oxy)-4-methyl-2,3-dihydro-1H-inden-1-yl)piperidine-4-carboxylic acid] is at most 1 nM; for `Cc1cc2c(cc1OCc1c(Cl)cccc1Cl)CCC2N1CCC(C(=O)O)CC1` (centres unmarked) [Compound 37, 1-(5-((2,6-dichlorobenzyl)oxy)-6-methyl-2,3-dihydro-1H-inden-1-yl)piperidine-4-carboxylic acid] it is 1 to 10 nM; for `CC1CC(N2CCC(C(=O)O)CC2)c2ccc(OCc3c(Cl)cccc3Cl)cc21` (centres unmarked) [Compound 38, 1-(5-((2,6-dichlorobenzyl)oxy)-3-methyl-2,3-dihydro-1H-inden-1-yl)piperidine-4-carboxylic acid] it is 1 to 10 nM.
Consider `CC1(C)CC(N2CCC(C(=O)O)CC2)c2ccc(OCc3c(Cl)cccc3Cl)cc21` (centres unmarked) [Compound 39], for which the EC50 was in the range of 10 to 100 nM.
